According to patent US20040176431A1, “Antiproliferative 2-(sulfo-phenyl)-aminothiazole derivatives and pharmaceutical compositions, and methods for their use” (Pfizer, Inc., priority 2003, published 2004):
Counter-ions that a name gives are not always drawn.

Columns and labels:
CDK2/cyclin A = biological target: T1, CDK2/cyclin A (Homo sapiens, UniProt P24941); test: Inhibition of CDK2/Cyclin A retinoblastoma kinase activity; format: biochemical; conditions: apparent Ki, Rb fragment substrate
T1 construct: made in house; host or cells: CDK2: insect cells (baculovirus); cyclin A: E. coli, then limited proteolysis
Description: Cyclin-dependent kinase activity was measured by quantifying the enzyme-catalyzed, time-dependent incorporation of radioactive phosphate from [^32P]ATP or [^33P]ATP into a protein substrate. Unless noted otherwise, assays were performed in 96-well plates in a total volume of 50 μL, in the presence of 10 mM HEPES (N-[2-hydroxyethyl]piperazine-N′-[2-ethanesulfonic acid]) (pH 7.4), 10 mM MgCl2, 25 μM adenosine triphosphate (ATP), 1 mg/mL ovalbumin, 5 μg/mL leupeptin, 1 mM dithiothreitol, 10 mM β-glycerophosphate, 0.1 mM sodium vanadate, 1 mM sodium fluoride, 2.5 mM ethylene glycol-bis(β-aminoethyl ether)-N,N,N′N′-tetraacetic acid (EGTA), 2% (v/v) dimethylsulfoxide, and 0.03-0.4 μCi [^32/33P]ATP per reaction. Reactions were initiated with enzyme, incubated at 30° C., and terminated after 20 minutes by the addition of ethylenediaminetetraacetic acid (EDTA) to 250 mM. The phosphorylated substrate was then captured on a nitrocellulose or phosphocellulose membrane using a 96-well filtration manifold, and unincorporated radioactivity was removed by repeated washing with 0.85% phosphoric acid. Radioactivity was quantified by exposing the dried membranes to a phosphorimager.
Inhibition was measured relative to control wells that contained all reaction components including 2% (v/v) DMSO but no compound, after subtraction of background radioactivity measured in the absence of enzyme. Apparent Ki values of discrete compounds were measured by assaying enzyme activity in the presence of different inhibitor compound concentrations and subtracting the background radioactivity measured in the absence of enzyme. The kinetic parameters (kcat, Km for ATP) were measured for each enzyme under the usual assay conditions by determining the dependence of initial rates on ATP concentration. Inhibition data were fit to an equation for competitive inhibition using Kaleidagraph (Synergy Software), or were fit to an equation for competitive tight-binding inhibition using the software KineTic (BioKin, Ltd.).
CDK2 was purified using published methodology (Rosenblatt et al., J. Mol. Biol., 230, 1317-1319 (1993)) from insect cells that had been infected with a baculovirus expression vector. Cyclin A was purified from E. coli cells expressing full-length recombinant cyclin A, and a truncated cyclin A construct was generated by limited proteolysis and purified as described previously (Jeffrey et al., Nature, 376, 313-320 (1995)). A complex of CDK2 and proteolyzed cyclin A was prepared and purified by gel filtration. The substrate for this assay was the same Rb substrate fragment used for the CDK4 assays, and the methodology of the CDK2/delta cyclin A and the CDK4/delta cyclin D3 assays was essentially the same, except that CDK2 was present at 10 nM or 19 nM. The duration of the assay was 60 or 75 minutes, during which the time-dependence of product formation was linear and initial rate conditions were met.

HCT-116 cells = test: Inhibition of cell growth (MTT tetrazolium salt assay); format: cell-based; conditions: Homo sapiens; for IC50: read-out: HCT116 IC50; for IC90: read-out: HCT116 IC90
Description: Inhibition of cell growth was measured using the tetrazolium salt assay, which is based on the ability of viable cells to reduce 3-(4,5-dimethylthiazol-2-yl)-2,5-[2H]-diphenyltetrazolium bromide (MTT) to formazan (Mosmann, J. Immunol. Meth., 65, 55-63 (1983)). The water-insoluble purple formazan product was then detected spectrophotometrically. HCT-116 cells were grown in 96-well plates. Cells were plated in the appropriate medium at a volume of 135 μl/well in either McCoy's 5A Medium. Plates were incubated for four hours before addition of inhibitor compounds. Different concentrations of inhibitor compounds were added in 0.5% (v/v) dimethylsulfoxide (15 μL/well), and cells were incubated at 37° C. (5% CO2) for four to six days (depending on cell type). At the end of the incubation, MTT was added to a final concentration of 0.2 mg/mL, and cells were incubated for 4 hours more at 37° C. After centrifugation of the plates and removal of medium, the absorbance of the formazan (solubilized in dimethylsulfoxide) was measured at 540 nm. […] All results were compared to control cells treated only with 0.5% (v/v) dimethylsulfoxide.

CDK4/cyclin D3 = biological target: T2, CDK4/cyclin D3 (Homo sapiens, UniProt P11802); test: Inhibition of CDK4/Cyclin D retinoblastoma kinase activity; format: biochemical; conditions: apparent Ki, Rb fragment substrate
T2 construct: made in house; host or cells: insect cells (baculovirus co-infection)
Outline: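 Human CDK4 with truncated cyclin D3 (1-264) from baculovirus-infected insect cells, 5 nM, phosphorylating His-tagged Rb fragment (386-928) with 25 μM [32P/33P]ATP in pH 7.4 HEPES/MgCl2, 2% DMSO, 30° C., 20 min (60 min for tight binders). Filter capture, phosphorimager; apparent Ki from competitive or tight-binding competitive fits.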

T2 sequence (P11802 whole entry, the tested form may be a part): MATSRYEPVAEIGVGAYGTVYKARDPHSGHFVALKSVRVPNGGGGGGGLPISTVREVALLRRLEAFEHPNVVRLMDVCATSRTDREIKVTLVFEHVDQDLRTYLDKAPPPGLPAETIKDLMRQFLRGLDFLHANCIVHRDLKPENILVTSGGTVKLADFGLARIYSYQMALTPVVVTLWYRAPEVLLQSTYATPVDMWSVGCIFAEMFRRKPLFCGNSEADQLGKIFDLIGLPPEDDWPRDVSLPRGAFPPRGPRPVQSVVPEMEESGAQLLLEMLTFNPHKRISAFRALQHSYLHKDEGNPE
T2 sequence (P30281 1-264 partner limits assumed): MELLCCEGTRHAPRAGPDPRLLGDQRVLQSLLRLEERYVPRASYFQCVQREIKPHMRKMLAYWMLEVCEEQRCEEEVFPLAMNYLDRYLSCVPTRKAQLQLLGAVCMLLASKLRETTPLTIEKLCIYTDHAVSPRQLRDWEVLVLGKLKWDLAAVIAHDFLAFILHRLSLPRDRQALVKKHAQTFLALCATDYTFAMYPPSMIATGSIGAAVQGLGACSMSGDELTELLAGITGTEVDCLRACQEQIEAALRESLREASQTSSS

| Compound | Ki (CDK2/cyclin A) [nM] | IC50 (HCT-116 cells) [nM] | IC90 (HCT-116 cells) [nM] | Ki (CDK4/cyclin D3) [nM] |
| --- | --- | --- | --- | --- |
| Nc1nc(Nc2ccc(S(=O)(=O)NCCc3cccs3)cc2)sc1C(=O)c1c(F)cccc1F [A(23), 4-[4-Amino-5-(2,6-difluoro-benzoyl)-thiazol-2-ylamino]-N-(2-thiophen-2-yl-ethyl)-benzenesulfonamide] | 13 | 440 | 1200 | 17 |
| Nc1nc(Nc2ccc(S(=O)(=O)NCCc3ccccn3)cc2)sc1C(=O)c1c(F)cccc1F [A(24), 4-[4-Amino-5-(2,6-difluoro-benzoyl)-thiazol-2-ylamino]-N-(2-pyridin-2-yl-ethyl)-benzenesulfonamide] | 5 | 1200 | 2600 | 18 |
| Nc1nc(Nc2ccc(S(=O)(=O)NCCCN3CCCC3=O)cc2)sc1C(=O)c1c(F)cccc1F [A(25), 4-[4-Amino-5-(2,6-difluoro-benzoyl)-thiazol-2-ylamino]-N-[3-(2-oxo-pyrrolidin-1-yl)-propyl]-benzenesulfonamide] | 4.1 | 3400 | 5000 | 16 |
| CCN(CC)CCCCNS(=O)(=O)c1ccc(Nc2nc(N)c(C(=O)c3c(F)cccc3F)s2)cc1 [A(26), 4-[4-Amino-5-(2,6-difluoro-benzoyl)-thiazol-2-ylamino]-N-(4-diethylamino-butyl)-benzenesulfonamide] | 2.9 | 850 | 3300 | 3 |
| Nc1nc(Nc2ccc(S(=O)(=O)NCc3cccs3)cc2)sc1C(=O)c1c(F)cccc1F [A(27), 4-[4-Amino-5-(2,6-difluoro-benzoyl)-thiazol-2-ylamino]-N-thiophen-2-ylmethyl-benzenesulfonamide] | 4.6 | 400 | 1000 | 57 |
| Nc1nc(Nc2ccc(S(=O)(=O)NCCCCCO)cc2)sc1C(=O)c1c(F)cccc1F [A(28), 4-[4-Amino-5-(2,6-difluoro-benzoyl)-thiazol-2-ylamino]-N-(5-hydroxy-pentyl)-benzenesulfonamide] | 2.6 | 1200 | 2800 | 12 |
| Cc1ccc(CNS(=O)(=O)c2ccc(Nc3nc(N)c(C(=O)c4c(F)cccc4F)s3)cc2)s1 [A(29), 4-[4-Amino-5-(2,6-difluoro-benzoyl)-thiazol-2-ylamino]-N-(5-methyl-thiophen-2-ylmethyl)-benzenesulfonamide] | < 5 | 190 | 560 | 15 |
| Cc1ccc(C(C)NS(=O)(=O)c2ccc(Nc3nc(N)c(C(=O)c4c(F)cccc4F)s3)cc2)o1 (stereo not shown) [A(30), 4-[4-Amino-5-(2,6-difluoro-benzoyl)-thiazol-2-ylamino]-N-[1-(5-methyl-furan-2-yl)-ethyl]-benzenesulfonamide] | < 5 | 310 | 640 | 9 |
| Nc1nc(Nc2ccc(S(=O)(=O)NCCCc3ccccc3)cc2)sc1C(=O)c1c(F)cccc1F [A(32), 4-[4-Amino-5-(2,6-difluoro-benzoyl)-thiazol-2-ylamino]-N-(3-phenyl-propyl)-benzenesulfonamide] | < 5 | 140 | 380 | 16 |
| Nc1nc(Nc2ccc(S(=O)(=O)NCc3cc4ccccc4o3)cc2)sc1C(=O)c1c(F)cccc1F [A(34), 4-[4-Amino-5-(2,6-difluoro-benzoyl)-thiazol-2-ylamino]-N-benzofuran-2-ylmethyl-benzenesulfonamide] | < 10 | 780 | 1800 | 5.1 |
| CC(C)CCCCNS(=O)(=O)c1ccc(Nc2nc(N)c(C(=O)c3c(F)cccc3F)s2)cc1 [A(37), 4-[4-Amino-5-(2,6-difluoro-benzoyl)-thiazol-2-ylamino]-N-(5-methyl-hexyl)-benzenesulfonamide] | 4.9 | 1200 | 3800 | 35 |
| Cn1cncc1CNS(=O)(=O)c1ccc(Nc2nc(N)c(C(=O)c3c(F)cccc3F)s2)cc1 [A(38), 4-[4-Amino-5-(2,6-difluoro-benzoyl)-thiazol-2-ylamino]-N-(1-methyl-1H-imidazol-5-ylmethyl)-benzenesulfonamide Trifluoroacetic Acid Salt] | 0.48 |  |  | 3.9 |
| CS(=O)(=O)c1cccc(Nc2nc(N)c(C(=O)c3c(Cl)cccc3Cl)s2)c1 [AA(1), 4-Amino-5-(2,6-dichloro-benzoyl)-2-(3-methanesulfonyl-phenylamino)-thiazole] | 430 |  |  |  |
| Nc1nc(Nc2ccc(S(=O)(=O)c3ccncc3)cc2)sc1C(=O)c1c(Cl)cccc1Cl [AA(3), 4-Amino-5-(2,6-dichlorobenzoyl)-2-[4-(pyridine-4-sulfonyl)-phenylamino]-thiazole] | 190 |  |  |  |
| Cc1ccc(CNS(=O)(=O)c2ccc(Nc3nc(N)c(C(=O)c4c(F)cc(F)cc4F)s3)cc2)o1 [B(1), 4-[4-Amino-5-(2,4,6-trifluoro-benzoyl)-thiazol-2-ylamino]-N-(5-methyl-furan-2-ylmethyl)-benzenesulfonamide] | < 10 | 900 | 2000 | 100 |
| CC(CCCC(C)(C)O)NS(=O)(=O)c1ccc(Nc2nc(N)c(C(=O)c3c(F)cc(F)cc3F)s2)cc1 (stereo not shown) [B(2), 4-[4-Amino-5-(2,4,6-trifluoro-benzoyl)-thiazol-2-ylamino]-N-(5-hydroxy-1,5-dimethyl-hexyl)-benzenesulfonamide] | 1.3 | 980 | 2300 | 6.2 |
| Nc1nc(Nc2ccc(S(=O)(=O)NC3CCNCC3)cc2)sc1C(=O)c1c(F)cccc1F [BB(1), 4-[4-Amino-5-(2,6-difluoro-benzoyl)-thiazol-2-ylamino]-N-piperidin-4-yl-benzenesulfonamide] | 13 | 22000 | > 50000 | 13 |
| Nc1nc(Nc2ccc(S(=O)(=O)NCc3cc(Cl)ccc3Cl)cc2)sc1C(=O)c1c(F)cccc1F [Example A(7), 4-[4-Amino-5-(2,6-difluoro-benzoyl)-thiazol-2-ylamino]-N-(2,5-dichloro-benzyl)-benzenesulfonamide] | 11 |  |  | 62 |
| Nc1nc(Nc2ccc(Sc3ccccn3)cc2)sc1C(=O)c1c(Cl)cccc1Cl [W(2), 4-Amino-5-(2,6-dichloro-benzoyl)-2-[4-(pyridin-2-ylthio)-phenylamino]-thiazole] | 500 |  |  | 190 |
| Nc1nc(Nc2ccc(S)cc2)sc1C(=O)c1c(Cl)cccc1Cl [X(1), 4-Amino-5-(2,6-dichloro-benzoyl)-2-(4-mercapto-phenylamino)-thiazole] | 520 |  |  |  |
| Nc1nc(Nc2cccc(S)c2)sc1C(=O)c1c(Cl)cccc1Cl [X(2)] | 1600 |  |  |  |
| C[S+]([O-])c1cccc(Nc2nc(N)c(C(=O)c3c(Cl)cccc3Cl)s2)c1 (stereo not shown) [Z(1), 4-Amino-5-(2,6-benzoyl)-2-(3-methanesulfinyl-phenylamino)-thiazole] | 450 |  |  |  |
